Results taken from the NIST ThermoML archive (doi:10.1016/j.fluid.2006.05.032).

Assay: xn = mol fraction of the nth substance listed
Settings: Liquid, Vibrating tube method, x1 = 1

CCCO [propan-1-ol] + Cc1ccccc1
mass density [kg/m3]
Settings	293.15 K	303.15 K	313.15 K	323.15 K
100 kPa	803.5	795.2	787.6	779.3
5000 kPa	807.3	799.2	791.9	783.7
10000 kPa	810.9	802.9	795.9	788
15000 kPa	814.3	806.7	799.7	792
20000 kPa	817.7	810.1	803.3	795.8
25000 kPa	821	813.6	806.8	799.7
30000 kPa	824	816.7	810.2	803.2
35000 kPa	827	819.8	813.5	–
40000 kPa	829.9	822.9	816.6	–
45000 kPa	832.7	825.8	819.7	–
50000 kPa	835.4	828.8	822.7	–
55000 kPa	838.1	831.6	825.5	–
60000 kPa	840.7	834.2	828.3	–
65000 kPa	843.2	837	831	–
